{"source": "paper PMC10364322", "about": "“Evaluation of chronic drug-induced electrophysiological and cytotoxic effects using human-induced pluripotent stem cell-derived cardiomyocytes (hiPSC-CMs)” (Frontiers in Pharmacology, 2023)", "origin": "cited, not measured here", "data": [{"settings": "free therapeutic Cmax in humans; ref FDA-approved drug packages, PharmaPendium; cited from earlier work", "units": {"Free Cmax": "nM"}, "values": [{"smiles": "N=C(N)c1ccc(OCCCCCOc2ccc(C(=N)N)cc2)cc1", "note": "[Pentamidine]", "Free Cmax": 200}, {"smiles": "CCN(CC)CCNC(=O)c1c(C)[nH]c(/C=C2\\C(=O)Nc3ccc(F)cc32)c1C", "note": "[Sunitinib]", "Free Cmax": 30}, {"smiles": "C[C@H](CS)C(=O)N1CCC[C@H]1C(=O)O", "note": "[Captopril]", "Free Cmax": 2300}, {"smiles": "Cc1cn(-c2cc(NC(=O)c3ccc(C)c(Nc4nccc(-c5cccnc5)n4)c3)cc(C(F)(F)F)c2)cn1", "note": "[Nilotinib]", "Free Cmax": 100}, {"smiles": "C#Cc1cccc(Nc2ncnc3cc(OCCOC)c(OCCOC)cc23)c1", "note": "[Erlotinib]", "Free Cmax": 3900}, {"smiles": "COc1cccc2c1C(=O)c1c(O)c3c(c(O)c1C2=O)C[C@@](O)(C(=O)CO)C[C@@H]3O[C@H]1C[C@H](N)[C@H](O)[C@H](C)O1", "note": "[Doxorubicin]", "Free Cmax": 7400}]}, {"settings": "prolonged intravenous administration; ref Sands et al., 1985; Conte et al., 1986; Cordes et al., 2005; cited from earlier work", "units": {"exposures in patients (TdP cases after intravenous administration)": "µM"}, "values": [{"smiles": "N=C(N)c1ccc(OCCCCCOc2ccc(C(=N)N)cc2)cc1", "note": "[Pentamidine]", "exposures in patients (TdP cases after intravenous administration)": "1 to 5"}]}]}
